This is an account of results in ChEMBL document CHEMBL5728847, “Cyanoindoline derivatives as NIK inhibitors” (2021).

The IC50 is the concentration needed to halve the response being measured.

The target of the assay is Mitogen-activated protein kinase kinase kinase 14 (Homo sapiens, UniProt Q99558). Description: Inhibition of Auto-Phosphorylation of Recombinant Human NF-kappaB-Inducing Kinase (NIK1/AP3K14) Activity: NIK/MAP3K14 auto-phosphorylation activity was measured using the AlphaScreen® (αscreen) format (Perkin Elmer). All compounds tested were dissolved in dimethyl sulfoxide (DMSO) and further dilutions were made in assay buffer. Final DMSO concentration was […] in assays. Assay buffer was 50 mM Tris pH 7.5 containing 1 mM EGTA (ethylene glycol tetraacetic acid), 1 mM DTT (dithiothreitol), 0.1 mM Na3VO4, 5 mM MgCl2, 0.01% Tween® 20. Assays were carried out in 384 well Alphaplates (Perkin Elmer). Incubations consisted of compound, 25 microM Adenosine-5′-triphosphate (ATP), and 0.2 nM NIK/MAP3K14. Incubations were initiated by addition of GST-tagged NIK/MAP3K14 enzyme, carried out for 1 h at 25° C. and terminated by addition of stop buffer containing anti-phospho-[…] Ser176/180 antibody. Protein A Acceptor and Glutathione-Donor beads were added before reading using an EnVision® Multilabel Plate Reader (Perkin Elmer). Signal obtained in the wells containing blank samples was subtracted from all other wells and IC50's were determined by fitting a sigmoidal curve to % inhibition of control versus Log10 compound concentration. Background: Bead proximity is the source of the signal in Alpha formats.
Mitogen-activated protein kinase kinase kinase 14, sequence (Q99558 whole entry): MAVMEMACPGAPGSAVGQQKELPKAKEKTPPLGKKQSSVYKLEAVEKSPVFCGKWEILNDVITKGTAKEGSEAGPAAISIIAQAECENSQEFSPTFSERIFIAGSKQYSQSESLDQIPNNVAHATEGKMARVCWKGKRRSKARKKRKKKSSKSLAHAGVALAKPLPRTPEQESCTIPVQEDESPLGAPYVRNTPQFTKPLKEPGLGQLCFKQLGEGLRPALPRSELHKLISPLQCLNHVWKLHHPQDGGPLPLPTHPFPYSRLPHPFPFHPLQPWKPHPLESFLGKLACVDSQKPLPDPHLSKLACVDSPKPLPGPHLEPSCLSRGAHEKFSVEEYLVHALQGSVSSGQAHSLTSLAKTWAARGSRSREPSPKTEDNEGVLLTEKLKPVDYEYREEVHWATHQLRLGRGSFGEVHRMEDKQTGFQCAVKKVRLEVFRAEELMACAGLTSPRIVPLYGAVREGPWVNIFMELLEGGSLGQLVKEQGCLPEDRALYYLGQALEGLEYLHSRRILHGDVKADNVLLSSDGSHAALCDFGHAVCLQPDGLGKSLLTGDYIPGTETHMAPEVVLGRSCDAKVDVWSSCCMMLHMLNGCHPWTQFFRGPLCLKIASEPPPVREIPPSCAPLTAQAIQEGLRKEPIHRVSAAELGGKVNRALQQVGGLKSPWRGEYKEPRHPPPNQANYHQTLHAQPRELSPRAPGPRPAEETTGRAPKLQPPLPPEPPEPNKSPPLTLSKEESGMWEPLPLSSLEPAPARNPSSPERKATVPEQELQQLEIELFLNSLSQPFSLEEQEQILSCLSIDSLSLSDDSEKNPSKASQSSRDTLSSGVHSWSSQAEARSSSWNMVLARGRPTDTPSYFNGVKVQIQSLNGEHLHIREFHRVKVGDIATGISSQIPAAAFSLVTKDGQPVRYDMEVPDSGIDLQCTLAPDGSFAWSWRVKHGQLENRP

Consider `CN1CCc2ncc(Nc3ncc(F)c(-c4cc(C#N)c5c(c4)[C@@](C)(CO)CN5)n3)cc2C1`, for which the IC50 worked out at 4.2 nM. The value for `CC1(C)CNc2c(C#N)cc(-c3ccnc(Nc4cc(Cl)cc5[nH]ccc45)n3)cc21` was 148 nM; that for `COc1nc2c(cc1Nc1nccc(-c3cc(C#N)c4c(c3)[C@@](C)(CO)CN4)n1)CCN(C)C2` was 1.8 nM.
